From US20260183303A1, “PDK1 REGULATORY COMPOUND AND COMPOSITION CONTAINING THE SAME” (PROVIBIO CO., LTD., priority 2024, published 2026)

Key:
psoriasis-induced mice = assay: In vivo psoriasis model (Aldara cream, Imiquimod); design: species or system BALB/c mice
Description: To verify the therapeutic effect of the compound according to the present invention on psoriasis, a psoriasis animal model was established as follows, and the compound according to the present invention was administered to evaluate the alleviation of skin lesions and changes in immune cell patterns.
For the establishment of the psoriasis animal model, BALB/c mice (7 weeks old, female, 20 g) were purchased from HanabioTech Co., Ltd. and acclimatized to the rearing environment for one week.
Subsequently, the hair on the mouse back was shaved using a hair removal device for the first time, and then completely shaved using a depilatory cream (Nicrin Cream (80% thioglycolic acid, II Dong Pharmaceutical)) for the second time. […]
Body weights of mice in each group were measured on days 1, 4, and 8 after the start of injection and psoriasis induction. […]
To evaluate the therapeutic effect in a psoriasis-induced mouse model, the PASI (Psoriasis Area and Severity Index) score was measured.
The PASI score is based on three criteria: erythema, scaling, and skin thickness, each scored from 0 (none) to 4 (severe). […]
Observations were conducted daily at the same time, and the same observer visually assessed each criterion and recorded the scores, with the results presented in FIG. 13. […]
All samples were measured in duplicate, and the absorbance was measured at 450 nm using a microplate reader.

[1] = test system: HCT-116 colon cancer cell lines; assay: Invasion Assay using Matrigel, HCT-116; type: cell-based, Human; details: HCT-116, Matrigel, 24 hours treatment, vs DMSO
Description: To evaluate the metastasis inhibitory efficacy of the compounds of the present invention on HCT-116 colon cancer cell lines, an Invasion Assay using Matrigel was performed to assess the cells' invasion ability.
First, Matrigel was thawed on ice in RPMI-1640 medium without FBS, then diluted with DMEM at a ratio of 1:20.
The diluted Matrigel mixture was applied to the upper chamber at 100 μl per well, and 750 μl of RPMI-1640 without FBS was added to the lower chamber.
The plates were then incubated at 37° C. for 1 hour to allow the Matrigel to solidify.
After coating, the Matrigel mixture in the upper chamber was removed using a pipette, and the chamber was washed with RPMI without FBS.
Human-derived colorectal cancer cell line HCT-116, obtained from the Korean Cell Bank, was cultured in RPMI-1640 medium containing 10% FBS. […]
After staining was complete, any remaining cells in the upper chamber were removed. Finally, the infiltrated cells were observed under a microscope, photographed, and the degree of infiltration was analyzed.

[2] = test system: T cells isolated from mouse spleens; assay: T cell proliferation inhibition (CFSE flow cytometry, anti-CD3/anti-CD28 activation); type: cell-based, C57BL/6 mice; details: mouse spleen T cells, CD3/CD28 activated, cultured three days
How it was run: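 Splenic T cells from 7-week-old C57BL/6 mice were CFSE-labelled and seeded at 2×10^5/well. They were activated with anti-CD3/anti-CD28 ([…]) and treated with compound at […] in triplicate for 3 days at 37 °C. Proliferation was read by CFSE dilution on flow cytometry and expressed as % inhibition.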

Row | Molecule | efficacy in improving dermatological symptoms (psoriasis-induced mice) | number of infiltrated cells (invasion) [1] | Proliferation inhibition rate (%) ([2]; 10 nM) | Proliferation inhibition rate (%) ([2]; 100 nM) | Proliferation inhibition rate (%) ([2]; 1 μM) | Proliferation inhibition rate (%) ([2]; 10 μM) | Proliferation inhibition rate (%) ([2]; 30 μM) | Proliferation inhibition rate (%) ([2]; 50 μM)
1 | Nc1nc(NC(=O)CCCCCCCCCCCCN2CCN(CCO)CC2)nc2nc[nH]c12 [Compound 15, 12-[4-(2-Hydroxyethyl)Piperazin-1-Yl]Dodecyl-N-(6-Aminopurine-2-Yl)Carboxamide] | excellent efficacy in improving dermatological symptoms |  |  |  |  |  |  | 
2 | 12-(4-Hydroxypiperazin-1-Yl)Dodecyl-N-(6-Aminopurazin-2-Yl)Carboxamide [Compound 10] |  | reduction in the number of infiltrated cells | 100.00% | 100.00% | 100.00% | 100.00% | 100.00% | 100.00%
